Data from US8026257B2 (Bristol-Myers Squibb Company, priority 2007, dated 2011).

Tests used:
[1] = biological target: T1, NK-1 (Homo sapiens, UniProt P25103); test: NK1 radioligand binding assay ([125I]Substance P, U373 membranes); conditions: U373 cell membranes, 200 pM [125I]Substance P, 1 hour at room temperature
T1 construct: 30 ul/well of a 2×U373 membrane preparation
Method: (§1) NK-1 Binding assay. Crude membrane suspensions were prepared for the NK1 and SERT radioligand binding assays from U373 cells or recombinant HEK-293 cells expressing hSERT, respectively. Cells were harvested from T-175 flasks as follows. The medium is removed from the flasks and the cells rinsed with HBSS without Ca and without Mg. The cells are then incubated for 5-10 minutes in 10 mM Tris-Cl, pH 7.5, 5 mM EDTA before the cells are lifted with a combination of pipetting and scraping, as needed. To prepare membranes, the cell suspension is collected into centrifuge bottles and homogenized for 30 seconds with a Polytron homogenizer. The suspension is centrifuged for 30 min@32,000×g, 4° C., then the supernatant is decanted and the pellet resuspended and homogenized in 50 mM Tris-Cl, pH 7.5, 1 mM EDTA for 10 seconds. The suspension is then centrifuged again for 30 min@32,000×g, 4° C. The supernatant is decanted and the pellet resuspended in 50 mM Tris-Cl, pH 7.5, 1 mM EDTA and briefly homogenized. A Bradford assay (Bio-rad) is performed and the membrane preparation diluted to 2 mg/ml with 50 mM Tris-Cl, pH 7.5, 1 mM EDTA. Aliquots are prepared, and then frozen and stored at −80° C.
NK1 radioligand binding assay. Compounds are dissolved in 100% DMSO at a concentration 100× the desired highest assay concentration, serially diluted 1:3 in 100% DMSO, and 0.6 ul/well of each solution is dispensed to a Nunc polypropylene, round bottom, 384 well plate. 100% inhibition is defined with 0.6 ul/well of 1 mM L-733,060 (Sigma L-137) dissolved in DMSO. 30 ul/well of a 2×U373 membrane preparation (267 ug/ml in 100 mM Tris-Cl, pH 7.5, 6 mM MgCl2, 0.2% (v/v) Sigma mammalian protease inhibitor cocktail (Sigma P-8340), and 4 ug/ml chymostatin, Sigma C-7268) and 30 ul/well of a 2× radioligand solution (400 pM [^125I]Substance P (Perkin ElmerNEX-190) in 1% (w/v) BSA (Sigma A-2153), 0.1 mg/ml bacitracin, Sigma B-0125) are added to the well and the reaction incubated for 1 hour at room temperature. The contents of the assay plate are then transferred to a Millipore MultiscreenHTS GF/B filter plate which has been pretreated with 0.5% PEI for at least one hour. The plate is vacuum filtered and washed with 7 washes of 100 ul/well of 20 mM Tris-Cl, pH 7.5, 0.5% (w/v) BSA chilled to 4° C. The filtration and washing is completed in less than 90 s. The plates are air-dried overnight, 12 ul/well of MicroScint scintillation fluid added, and the plates counted in a Trilux.
(§2) Data analysis. The raw data are normalized to percent inhibition using control wells defining 0% (DMSO only) and 100% (selective inhibitor) inhibition which are run on each plate. Each plate is run in triplicate, and the concentration response curve thus generated is fit using the four-parameter dose response equation, Y=Bottom+(Top-Bottom)/(1+10^((LogIC50−X)*HillSlope)) in order to determine the IC50 value for each compound. The radioligand concentration chosen for each assay corresponds to the Kd concentration determined through saturation binding analysis for each assay.

[2] = biological target: hSERT (Homo sapiens, UniProt P31645); test: SERT radioligand binding assay ([125I]RTI-55, HEK-hSERT membranes); conditions: HEK-293 hSERT membranes, 260 pM [125I]RTI-55, 1 hour at room temperature; read-out: SERT IC50
Method: as §1
SERT radioligand binding assay. Compounds are dissolved in 100% DMSO at a concentration 100× the desired highest assay concentration, serially diluted 1:3 in 100% DMSO, and 0.4 ul/well of each solution is dispensed to a Nunc polypropylene, round bottom, 384 well plate. 100% inhibition is defined with 0.4 ul/well of 1 mM fluoxetine (Sigma F-132) dissolved in DMSO. 20 ul/well of a 2× HEK-hSERT membrane preparation (15 ug/ml in 50 mM Tris-Cl, pH 7.5, 120 mM NaCl, 5mM KCl) and 20 ul/well of a 2× radioligand solution (520 pM [^125I]RTI-55 (Perkin-Elmer NEX-272) in 50 mM Tris-Cl, pH 7.5, 120 mM NaCl, 5mM KCl) are added to each well and the reaction incubated for 1 hour at room temperature. The contents of the assay plate are then transferred to a Millipore MultiscreenHTs GF/B filter plate which has been pretreated with 0.5% PEI for at least one hour. The plate is vacuum filtered and washed with 7 washes of 100 ul/well of 50 mM Tris-Cl, pH 7.5, 120 mM NaCl, 5 mM KCl chilled to 4° C. The filtration and washing is completed in less than 90 s. The plates are air-dried overnight, 12 ul/well of MicroScint scintillation fluid added, and the plates counted in a Trilux.
as §2

Chain of hSERT (P31645 whole entry): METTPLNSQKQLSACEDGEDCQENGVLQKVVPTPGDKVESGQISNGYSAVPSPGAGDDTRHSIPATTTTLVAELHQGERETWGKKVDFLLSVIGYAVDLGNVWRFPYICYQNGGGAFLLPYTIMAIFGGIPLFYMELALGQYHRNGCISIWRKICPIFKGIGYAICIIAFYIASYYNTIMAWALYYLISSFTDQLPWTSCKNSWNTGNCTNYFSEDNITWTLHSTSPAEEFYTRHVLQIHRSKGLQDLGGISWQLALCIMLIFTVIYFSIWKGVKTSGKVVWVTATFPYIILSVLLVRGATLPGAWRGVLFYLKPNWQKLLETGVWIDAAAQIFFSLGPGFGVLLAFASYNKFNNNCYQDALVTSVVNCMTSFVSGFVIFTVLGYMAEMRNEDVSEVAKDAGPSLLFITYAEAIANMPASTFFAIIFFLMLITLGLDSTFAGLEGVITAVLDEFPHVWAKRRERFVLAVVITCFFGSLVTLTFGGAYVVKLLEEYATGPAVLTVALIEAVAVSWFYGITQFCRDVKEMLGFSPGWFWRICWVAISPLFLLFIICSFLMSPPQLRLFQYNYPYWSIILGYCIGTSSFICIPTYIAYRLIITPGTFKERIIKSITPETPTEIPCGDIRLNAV
T1 sequence (P25103 whole entry): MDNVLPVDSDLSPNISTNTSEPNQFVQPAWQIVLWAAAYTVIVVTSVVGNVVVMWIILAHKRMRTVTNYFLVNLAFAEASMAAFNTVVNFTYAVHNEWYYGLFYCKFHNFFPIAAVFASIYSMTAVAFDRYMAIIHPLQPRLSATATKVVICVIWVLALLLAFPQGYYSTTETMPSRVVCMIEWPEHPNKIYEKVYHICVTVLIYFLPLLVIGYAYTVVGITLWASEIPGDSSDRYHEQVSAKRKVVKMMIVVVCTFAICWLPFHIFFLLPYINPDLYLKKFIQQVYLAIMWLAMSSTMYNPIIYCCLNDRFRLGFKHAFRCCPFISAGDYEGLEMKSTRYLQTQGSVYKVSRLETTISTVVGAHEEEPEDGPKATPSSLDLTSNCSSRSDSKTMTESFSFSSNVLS

SMILES	IC50 [1]	IC50 [2]
CC(OCC1(c2ccccc2)CCNCC1)c1cc(C(F)(F)F)cc2cn[nH]c12 (racemic) [Example 20, (±)-7-(1-((4-Phenylpiperidin-4-yl)methoxy)ethyl)-5-(trifluoromethyl)-1H-indazole]	0.01 to 100 nM	0.01 to 100 nM
CC(OCC1(c2ccccc2)CCN(C)CC1)c1cc(C(F)(F)F)cc2cn[nH]c12 (racemic) [Example 21, (±)-7-(1-((1-Methyl-4-phenylpiperidin-4-yl)methoxy)ethyl)-5-(trifluoromethyl)-1H-indazole]	0.01 to 100 nM	0.01 to 100 nM
CC(OCC1(c2ccccc2)CCNCC1)c1cc(Cl)cc2cn[nH]c12 (racemic) [Example 38, (±)-5-Chloro-7-(1-((4-phenylpiperidin-4-yl)methoxy)ethyl)-1H-indazole]	0.01 to 100 nM	0.01 to 100 nM
CC(OCC1(c2ccccc2)CCN(C)CC1)c1cc(Cl)cc2cn[nH]c12 (racemic) [Example 39, (±)-5-Chloro-7-(1-((1-methyl-4-phenylpiperidin-4-yl)methoxy)ethyl)-1H-indazole]	0.01 to 100 nM	0.01 to 100 nM
CC(OCC1(c2ccccc2)CCNCC1)c1cc(Cl)cc2cnn(C)c12 (racemic) [Example 40, (±)-5-Chloro-1-methyl-7-(1-((4-phenylpiperidin-4-yl)methoxy)ethyl)-1H-indazole]	0.01 to 100 nM	0.01 to 100 nM
CC(OCC1(c2ccccc2)CCN(C)CC1)c1cc(C(F)(F)F)cc2c(C#N)n[nH]c12 (racemic) [Example 42, (±)-7-(1-((1-methyl-4-phenylpiperidin-4-yl)methoxy)ethyl)-5-(trifluoromethyl)-1H-indazole-3-carbonitrile]	0.01 to 100 nM	100 to 300 nM
Cc1n[nH]c2c(C(C)OCC3(c4ccccc4)CCNCC3)cc(C(F)(F)F)cc12 (racemic) [Example 43, (±)-3-Methyl-7-(1-((4-phenylpiperidin-4-yl)methoxy)ethyl)-5-(trifluoromethyl)-1H-indazole]	0.01 to 100 nM	0.01 to 100 nM
Cc1n[nH]c2c(C(C)OCC3(c4ccccc4)CCN(C)CC3)cc(C(F)(F)F)cc12 (racemic) [Example 44, (±)-3-Methyl-7-(1-((1-methyl-4-phenylpiperidin-4-yl)methoxy)ethyl)-5-(trifluoromethyl)-1H-indazole]	0.01 to 100 nM	0.01 to 100 nM
CC(OCC1(c2ccc(F)cc2)CCN(C)CC1)c1cc(Br)cc2cn[nH]c12 (racemic) [Example 46, (±)-5-Bromo-7-(1-((4-(4-fluorophenyl)-1-methylpiperidin-4-yl)methoxy)ethyl)-1H-indazole]	0.01 to 100 nM	0.01 to 100 nM
CC(OCC1(c2ccc(F)cc2)CCN(C)CC1)c1cc(C2CC2)cc2cn[nH]c12 (racemic) [Example 47, (±)-5-Cyclopropyl-7-(1-((4-(4-fluorophenyl)-1-methylpiperidin-4-yl)methoxy)ethyl)-1H-indazole]	0.01 to 100 nM	0.01 to 100 nM
CC(OCC1(c2ccc(F)cc2)CCN(C)CC1)c1cc(C#N)cc2cn[nH]c12 (racemic) [Example 48, (±)-7-(1-((4-(4-Fluorophenyl)-1-methylpiperidin-4-yl)methoxy)ethyl)-1H-indazole-5-carbonitrile]	0.01 to 100 nM	0.01 to 100 nM
Cc1cc(C(C)OCC2(c3ccc(F)cc3)CCN(C)CC2)c2[nH]ncc2c1 (racemic) [Example 49, (±)-7-(1-((4-(4-Fluorophenyl)-1-methylpiperidin-4-yl)methoxy)ethyl)-5-methyl-1H-indazole]	0.01 to 100 nM	0.01 to 100 nM
CC(OCC1(c2ccc(F)cc2)CCN(C)CC1)c1cc(N2CCOCC2)cc2cn[nH]c12 (racemic) [Example 50, (±)-4-7-(1-((4-(4-Fluorophenyl)-1-methylpiperidin-4-yl)methoxy)ethyl)-1H-indazole-5-yl)morpholino]	100 to 300 nM	0.01 to 100 nM
COc1cc(C(C)OCC2(c3ccc(F)cc3)CCN(C)CC2)c2[nH]ncc2c1 (racemic) [Example 52, (±)-7-(1-((4-(4-Fluorophenyl)-1-methylpiperidin-4-yl)methoxy)ethyl)-5-methoxy-1H-indazole]	0.01 to 100 nM	0.01 to 100 nM
CC(OCC1(c2ccc(F)cc2)CCN(C)CC1)c1cc(F)cc2cn[nH]c12 (racemic) [Example 53, (±)-5-Fluoro-7-(1-((4-(4-fluorophenyl)-1-methylpiperidin-4-yl)methoxy)ethyl)-1H-indazole]	0.01 to 100 nM	0.01 to 100 nM
Cc1n[nH]c2c(C(C)OCC3(c4ccc(F)cc4)CCN(C)CC3)cc(Cl)cc12 (racemic) [Example 55, (±)-5-Chloro-7-(1-((4-(4-fluorophenyl)-1-methylpiperidin-4-yl)methoxy)ethyl)-3-methyl-1H-indazole]	0.01 to 100 nM	0.01 to 100 nM
CC(OCC1(c2ccc(F)cc2)CCN(C)CC1)c1cc(Cl)cc2c(C3CC3)n[nH]c12 (racemic) [Example 56, (±)-5-Chloro-3-cyclopropyl-7-(1-((4-(4-fluorophenyl)-1-methylpiperidin-4-yl)methoxy)ethyl)-1H-indazole]	0.01 to 100 nM	0.01 to 100 nM
CC(OCC1(c2ccc(F)cc2)CCN(C)CC1)c1cc(Cl)cc2c(Br)n[nH]c12 (racemic) [Example 57, (±)-3-Bromo-5-chloro-7-(1-((4-(4-fluorophenyl)-1-methylpiperidin-4-yl)methoxy)ethyl)-1H-indazole]	0.01 to 100 nM	0.01 to 100 nM
CC(OCC1(c2ccc(F)cc2)CCN(C)CC1)c1cc(Cl)cc2cn(C3CC3)nc12 (racemic) [Example 58, (±)-5-Chloro-2-cyclopropyl-7-(1-((4-(4-fluorophenyl)-1-methylpiperidin-4-yl)methoxy)ethyl)-2H-indazole]	0.01 to 100 nM	0.01 to 100 nM
CC(OCC1(c2ccc(F)cc2)CCN(C)CC1)c1cc(Cl)cc2c(Cl)n[nH]c12 (racemic) [Example 59, (±)-3,5-Dichloro-7-(1-((4-(4-fluorophenyl)-1-methylpiperidin-4-yl)methoxy)ethyl)-1H-indazole]	0.01 to 100 nM	0.01 to 100 nM
Cc1cc(C(C)OCC2(c3ccc(F)cc3)CCN(C)CC2)c2c(cnn2CC(F)F)c1 (racemic) [Example 60, (±)-1-(2,2-Difluoroethyl)-7-(1-((4-(4-fluorophenyl)-1-methylpiperidin-4-yl)methoxy)ethyl)-5-methyl-1H-indazole]	0.01 to 100 nM	0.01 to 100 nM
C[C@@H](OCC1(c2ccc(F)cc2)CCN(C)CC1)c1cc(Cl)cc2c(Cl)n(CC(F)(F)F)nc12 [Example 117, (R)-3,5-dichloro-7-(1-((4-(4-fluorophenyl-1-methyl)piperidine-4-yl)methoxy)ethyl)-2-(2,2,2-trifluoroethyl)-1H-indazole]	0.01 to 100 nM	
